Where “and” joins values, the source holds several entries; their conditions need not be identical. Equal entries are not always repeated. Inconclusive results and toxic doses are left out. No stated cut-off is given here; in the data, active means T/C of 150% or more; inactive means T/C below 125%.
Test system: L1210 leukemia ip in BDF1 mice, survival T/C
Assay: NCI In Vivo Anticancer Drug Screen. Data for tumor model L1210 Leukemia (intraperitoneal) in B6D2F1 (BDF1) mice
Conditions: endpoint: mean survival time, higher = longer survival
Summary of the method: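 In this screen, tumor-bearing mice given compound are compared to those given vehicle, and their survival values are reported as a treated-to-control quotient.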

[1] = dose: 12.5 mg/kg/injection, schedule: Q04DX003 (ip), vehicle: saline
[2] = dose: 25.0 mg/kg/injection, schedule: Q01DX009 (ip), vehicle: saline
[3] = dose: 25.0 mg/kg/injection, schedule: Q04DX003 (ip), vehicle: saline
[4] = dose: 50.0 mg/kg/injection, schedule: Q01DX009 (ip), vehicle: saline
[5] = dose: 50.0 mg/kg/injection, schedule: Q04DX003 (ip), vehicle: saline
[6] = dose: 100.0 mg/kg/injection, schedule: Q04DX003 (ip), vehicle: saline
[7] = dose: 100.0 mg/kg/injection, schedule: Q04DX003 (ip), vehicle: Klucel (hydroxypropylcellulose) (HPC)
[8] = dose: 200.0 mg/kg/injection, schedule: Q04DX003 (ip), vehicle: Klucel (hydroxypropylcellulose) (HPC)
[9] = dose: 50.0 mg/kg/injection, schedule: Q01DX009 (ip), vehicle: Klucel (hydroxypropylcellulose) (HPC)
[10] = dose: 100.0 mg/kg/injection, schedule: Q04DX003 (ip), vehicle: saline with Tween-80
[11] = dose: 400.0 mg/kg/injection, schedule: Q01DX001 (ip), vehicle: saline
[12] = dose: 100.0 mg/kg/injection, schedule: Q01DX001 (ip), vehicle: carboxymethylcellulose (CMC)
[13] = dose: 200.0 mg/kg/injection, schedule: Q01DX001 (ip), vehicle: carboxymethylcellulose (CMC)
[14] = dose: 400.0 mg/kg/injection, schedule: Q01DX001 (ip), vehicle: carboxymethylcellulose (CMC)
[15] = dose: 100.0 mg/kg/injection, schedule: Q01DX009 (ip), vehicle: saline
[16] = dose: 12.5 mg/kg/injection, schedule: Q04DX003 (ip), vehicle: Klucel (hydroxypropylcellulose) (HPC)
[17] = dose: 100.0 mg/kg/injection, schedule: Q01DX001 (ip), vehicle: saline

Measured: T/C

Cc1ccc(CCCC(CC(=O)O)C(=O)O)cc1 (stereo not given)
inactive: dose: 12.5 mg/kg/injection, schedule: Q01DX001 (ip), vehicle: saline with Tween-80 100 % of control | dose: 25.0 mg/kg/injection, schedule: Q01DX001 (ip), vehicle: saline with Tween-80 98 % of control | dose: 50.0 mg/kg/injection, schedule: Q01DX001 (ip), vehicle: saline with Tween-80 88 % of control

CCCCCCCCC(=O)N1CCC(C)CC1
inactive: dose: 200.0 mg/kg/injection, schedule: Q04DX002 (ip), vehicle: Klucel (hydroxypropylcellulose) (HPC) 106 % of control | dose: 400.0 mg/kg/injection, schedule: Q04DX002 (ip), vehicle: Klucel (hydroxypropylcellulose) (HPC) 95 % of control

NCCC(=O)OC1CCCc2c(O)c3c(c(O)c21)C(=O)c1ccccc1C3=O (stereo not given)
inactive: [1] 93 % of control | [2] 93 % of control | [3] 95 % of control | [4] 97 % of control | [5] 98 % of control | [6] 102 % of control

CC(C)C1CC(C)(C)c2cc3c(cc2O1)C(C)(C)CC(C(C)C)O3 (stereo not given)
inactive: [7] 91 % of control | [8] 106 % of control | dose: 400.0 mg/kg/injection, schedule: Q04DX003 (ip), vehicle: Klucel (hydroxypropylcellulose) (HPC) 96 % of control

O=[N+]([O-])c1cccc(-[n+]2cc([O-])on2)c1
inactive: [9] 94 % of control | [7] 105 % of control | [8] 96 % of control

CC1CN=C(c2cccc(NC(=O)c3ccc(C(=O)Nc4cccc(C5=NCC(C)N5)c4)c(N)c3)c2)N1 (stereo not given)
inactive: dose: 1.25 mg/kg/injection, schedule: Q01DX Z (ip), vehicle: water 91 % of control | dose: 2.5 mg/kg/injection, schedule: Q01DX Z (ip), vehicle: water 89 % of control

CSc1cc(-c2ccccc2)c2ccccc2[n+]1C
inactive: dose: 12.5 mg/kg/injection, schedule: Q04DX003 (ip), vehicle: saline with Tween-80 112 % of control | dose: 25.0 mg/kg/injection, schedule: Q01DX009 (ip), vehicle: saline with Tween-80 116 % of control | dose: 25.0 mg/kg/injection, schedule: Q04DX003 (ip), vehicle: saline with Tween-80 112 % of control | dose: 50.0 mg/kg/injection, schedule: Q04DX003 (ip), vehicle: saline with Tween-80 90 % of control | [10] 94 % of control

CC1(C)C/C(=C\c2cccc([N+](=O)[O-])c2)C(=O)c2ccccc21
inactive: dose: 100.0 mg/kg/injection, schedule: Q01DX001 (ip), vehicle: Klucel (hydroxypropylcellulose) (HPC) 94 % of control | dose: 200.0 mg/kg/injection, schedule: Q01DX001 (ip), vehicle: Klucel (hydroxypropylcellulose) (HPC) 93 % of control | dose: 400.0 mg/kg/injection, schedule: Q01DX001 (ip), vehicle: Klucel (hydroxypropylcellulose) (HPC) 94 % of control

CCCCCCCCCCCCn1ncc2ccc([N+](=O)[O-])cc21
inactive: [11] 96 % of control

COC1(c2ccccc2)C(c2ccccc2)=CC(c2ccccc2)=[N+]1[O-] (stereo not given)
inactive: dose: 75.0 mg/kg/injection, schedule: Q04DX003 (ip), vehicle: saline 92 % of control | dose: 150.0 mg/kg/injection, schedule: Q04DX003 (ip), vehicle: saline 89 % of control | dose: 300.0 mg/kg/injection, schedule: Q04DX003 (ip), vehicle: saline 91 % of control

CCCCn1ccnc1
inactive: [1] 105 % of control | [3] 103 % of control

COc1ccccc1/C=C(/C)C(C)=O
inactive: dose: 75.0 mg/kg/injection, schedule: Q04DX003 (ip), vehicle: Klucel (hydroxypropylcellulose) (HPC) 102 % of control | [12] 103 % of control | dose: 150.0 mg/kg/injection, schedule: Q04DX003 (ip), vehicle: Klucel (hydroxypropylcellulose) (HPC) 97 % of control | [13] 108 % of control | dose: 300.0 mg/kg/injection, schedule: Q04DX003 (ip), vehicle: Klucel (hydroxypropylcellulose) (HPC) 94 % of control | [14] 97 % of control

O=C(O)CCC(NC(=O)OCc1ccccc1)C(=O)OCc1ccccc1 (stereo not given)
inactive: [9] 101 % of control | dose: 100.0 mg/kg/injection, schedule: Q01DX009 (ip), vehicle: Klucel (hydroxypropylcellulose) (HPC) 103 % of control | [7] 101 % of control | dose: 200.0 mg/kg/injection, schedule: Q01DX009 (ip), vehicle: Klucel (hydroxypropylcellulose) (HPC) 90 % of control | [8] 105 % of control

O=C(O)C1C2C=Cc3ccccc3C21 (stereo not given)
inactive: [11] 90 % of control

O=c1[nH]cncc1CCC1OCCO1
inactive: [15] 98 % of control | dose: 200.0 mg/kg/injection, schedule: Q01DX009 (ip), vehicle: saline 109 % of control

CN(C)CCC1CCCCN1 (stereo not given)
inactive: [2] 95 % of control | [3] 103 % of control | [4] 95 % of control | [5] 101 % of control | [15] 104 % of control | [6] 99 % of control and 100 % of control

CCCCCCCCCCCCCCC(CCCCCCCCCCCCCC)C1CCCCC1
inactive: dose: 100.0 mg/kg/injection, schedule: Q01DX001 (ip), vehicle: saline with Tween-80 92 % of control | dose: 200.0 mg/kg/injection, schedule: Q01DX001 (ip), vehicle: saline with Tween-80 95 % of control | dose: 400.0 mg/kg/injection, schedule: Q01DX001 (ip), vehicle: saline with Tween-80 94 % of control

CC[CH2][Pb]([CH2]CC)([CH2]CC)[O]C(C)=O
inactive: dose: 6.25 mg/kg/injection, schedule: Q04DX003 (ip), vehicle: Klucel (hydroxypropylcellulose) (HPC) 100 % of control | [16] 103 % of control | dose: 50.0 mg/kg/injection, schedule: Q01DX001 (ip), vehicle: saline 94 % of control | [17] 94 % of control

C[CH2][Hg][S]c1nsc([S][Hg][CH2]C)n1
inactive: dose: 1.56 mg/kg/injection, schedule: Q01DX009 (ip), vehicle: Klucel (hydroxypropylcellulose) (HPC) 110 % of control | dose: 3.12 mg/kg/injection, schedule: Q01DX009 (ip), vehicle: Klucel (hydroxypropylcellulose) (HPC) 119 % of control | dose: 6.25 mg/kg/injection, schedule: Q01DX009 (ip), vehicle: Klucel (hydroxypropylcellulose) (HPC) 121 % of control | dose: 12.5 mg/kg/injection, schedule: Q01DX009 (ip), vehicle: Klucel (hydroxypropylcellulose) (HPC) 117 % of control | dose: 25.0 mg/kg/injection, schedule: Q01DX009 (ip), vehicle: Klucel (hydroxypropylcellulose) (HPC) 100 % of control

C(=C\c1ccccn1)/c1ccc2c(c1)OCO2
inactive: dose: 75.0 mg/kg/injection, schedule: Q01DX009 (ip), vehicle: saline 93 % of control | [17] 101 % of control | dose: 150.0 mg/kg/injection, schedule: Q01DX009 (ip), vehicle: saline 93 % of control | dose: 200.0 mg/kg/injection, schedule: Q01DX001 (ip), vehicle: saline 96 % of control | dose: 300.0 mg/kg/injection, schedule: Q01DX009 (ip), vehicle: saline 88 % of control | [11] 95 % of control

CC(=O)OC(C[N+](=O)[O-])C(Cl)(Cl)Cl (stereo not given)
inactive: dose: 6.25 mg/kg/injection, schedule: Q01DX009 (ip), vehicle: saline sonified 107 % of control | dose: 12.5 mg/kg/injection, schedule: Q01DX009 (ip), vehicle: saline sonified 107 % of control | [16] 97 % of control | dose: 25.0 mg/kg/injection, schedule: Q01DX009 (ip), vehicle: saline sonified 106 % of control | dose: 25.0 mg/kg/injection, schedule: Q04DX003 (ip), vehicle: Klucel (hydroxypropylcellulose) (HPC) 103 % of control

NC(=O)NNC(=O)C(Cl)(Cl)Cl
inactive: dose: 25.0 mg/kg/injection, schedule: Q04DX002 (ip), vehicle: saline 108 % of control | dose: 50.0 mg/kg/injection, schedule: Q04DX002 (ip), vehicle: saline 99 % of control | dose: 100.0 mg/kg/injection, schedule: Q04DX002 (ip), vehicle: saline 101 % of control

CCCCCCCCCCCCCCCCS(=O)(=O)N/N=C/c1ccc(N(C)C)cc1
inactive: [12] 92 % of control | [13] 87 % of control | [14] 89 % of control

CC(C)(C)C(=O)CC(=O)C(C)(C)C.CC(C)(C)C(=O)CC(=O)C(C)(C)C.CC(C)(C)C(=O)CC(=O)C(C)(C)C.[Er]
inactive: [10] 100 % of control | dose: 200.0 mg/kg/injection, schedule: Q04DX003 (ip), vehicle: saline with Tween-80 97 % of control | dose: 400.0 mg/kg/injection, schedule: Q04DX003 (ip), vehicle: saline with Tween-80 94 % of control

From PubChem BioAssay AID248 (DTP/NCI, 2004)
